Several values for one entry are separate records, joined by “and”; a condition that tells them apart may be missing. Equal entries are not always repeated. Where two headings read alike, the source gives them in different places.
Key:
ARPE-19 non-cancer cells = assay: Chemosensitivity, 96 h continuous exposure, MTT assay; format: cell-based, human
From the text: (§1) All cell lines were purchased from and maintained as monolayers as described by the American Type Culture Collection with the exception of the p53^+/+ and p53^−/− isogenic clones of HCT116 human colorectal adenocarcinoma cells which were a kind gift from Professor Bert Vogelstein[54]. GBM1 cells were established from a primary GBM tumour by Heiko Wurdak and colleagues[32],[33]. Non-cancerous adult brain neural progenitor (NP1) cells were derived from a patient undergoing surgery to treat epilepsy[32],[33]. Cell culture and growth media for NP1 and GBM1 cells were as described[32],[33]. The response of cells following a continuous 96-h exposure to test compounds and platinates was determined using the MTT assay. Potency was recorded as the IC50 and the selectivity index (SI) was defined as the ratio of IC50 values for non-cancer to cancer cell lines with values >1 representing selectivity for cancer cells as opposed to non-cancer cells.
(§2) All cell lines used were maintained at low passage in antibiotic-free media. HT29, DLD-1, HCT116 p53^+/+ and HCT116 p53^−/− are all colorectal adenocarcinoma cell lines derived from different individuals and harbour different combinations of oncogenic lesions (except for the HCT116 isogenic cancer cell clones that are genetically identical except for p53 status). PSN-1, BxPC-3 and MiaPaCa2 are pancreatic carcinoma cell lines and A549 and H460 are lung carcinoma cell lines. HT29, DLD-1, PSN-1, BxPC-3, A549 and H460 cell lines were cultured in RPMI-1640 growth media (Sigma) containing 2 mM L-glutamine, 1 mM sodium pyruvate and 10% foetal bovine serum (FBS). HCT116 (p53^+/+ and p53^−/−) and MiaPaCa2 cell lines were cultured in Dulbecco’s Modified Eagle’s Medium (Sigma), 2 mM L-glutamine and 10% FBS. The ARPE-19 retinal epithelial non-cancer cell line was cultured in DMEM/F12 media (Gibco), 2 mM L-glutamine, 1 mM sodium pyruvate and 10% FBS. The MCF10A non-cancerous human breast epithelial cell line was cultured in Minimal Essential Media Eagle (Sigma), 2 mM L-glutamine, 1 mM sodium pyruvate, 10% FBS and 1x non-essential amino acids (NEAA). NP1 and GBM1 cells were cultured on plasticware coated with poly-L-ornithine (5 µg/ml) and laminin (2.4 µg/ml)[32],[33]. NP1 cells were grown in DMEM/F12 media (Gibco) supplemented with 5% FBS, 20 ng/ml hFGF, 20 ng/ml rhEGF, 0.5x B-27 supplement (Gibco), 0.5x N-2 supplement (Gibco) and 1x GLUTAMAX (Gibco). GBM1 cells were cultured in Neurobasal media (Gibco) supplemented with 40 ng/ml hFGF, 40 ng/ml rhEGF, 0.5x B-27 supplement (Gibco) and 0.5x N-2 supplement (Gibco).
(§3) [L2(Metal)3]^6+ and all the other self-assembling complexes were freshly formed by adding DMSO to individual components and mixing together by pipetting. These were then further diluted in cell culture media such that the final DMSO concentration that cells were exposed to was 0.2% (vehicle control). Cisplatin, oxaliplatin and carboplatin were dissolved in phosphate buffered saline. Cell lines were seeded into 96 well plates at 2 × 10^3 cells per well and incubated overnight at 37 °C. GBM1 cancer stem-like cells were seeded at 3 × 10^3 cells per well and NP1 neural progenitors were seeded at 1.5 × 10^3 cells per well. The following day, media was removed and replaced with fresh media containing test compounds at a range of concentrations. Cells were incubated with test compounds for a further 96 h after which the media was removed and replaced with fresh media (200 μl/well). MTT was added (20 μl at 5 mg/ml) and cells were incubated for a further 4 h. Media and MTT were removed and formazan crystals were dissolved in 150 μl of DMSO and the absorbance of the resulting solution determined at 540 nm. Dose response curves were constructed, and the concentration required to reduce cell growth by 50% (IC50) determined.

HCT116 p53+/+ = assay: as above; format: cell-based, human; conditions: for IC50: HCT116 p53+/+
From the text: as §1, §2, §3

[Mn+2].[Mn+2].[Mn+2].c1ccc(-c2csc(NCCN(CCNc3nc(-c4ccccn4)cs3)CCNc3nc(-c4ccccn4)cs3)n2)nc1.c1ccc(-c2csc(NCCN(CCNc3nc(-c4ccccn4)cs3)CCNc3nc(-c4ccccn4)cs3)n2)nc1 [[L2Mn3]6+]
IC50 (ARPE-19 non-cancer cells; ARPE-19, 96 h, MTT, individual run, read-out: IC50 values for each replicate): 5.14 µM and 2.1 µM and 2.12 µM and 2.08 µM
IC50 (ARPE-19 non-cancer cells; ARPE-19, 96 h, MTT, mean of at least 3 independent experiments, read-out: Mean IC50): 2.86 µM
IC50 (ARPE-19 non-cancer cells; ARPE-19 non-cancer, read-out: Mean IC50 values): 2.86 µM
IC50 (HCT116 p53+/+; 96 h, MTT, individual run, read-out: IC50 values for each replicate): 1.78 µM and 0.529 µM and 1.4 µM and 1.45 µM and 1.41 µM
IC50 (HCT116 p53+/+; 96 h, MTT, mean of at least 3 independent experiments, read-out: Mean IC50): 1.32 µM
IC50 (HCT116 p53+/+; read-out: Mean IC50 values): 1.32 µM
Selectivity index (ARPE19) (HCT116 p53+/+; IC50 ARPE-19 / IC50 HCT116 p53+/+): 2.17
preferential selectivity towards cancer cells (HCT116 p53+/+; cancer cells vs non-cancer cells (Fig. 5f)): ~ 2 fold
SI (ARPE19) (HCT116 p53+/+; mean IC50 ARPE-19 / mean IC50 HCT116 p53+/+): 2.173

From paper PMC8222254, “Self-assembly of an anion receptor with metal-dependent kinase inhibition and potent in vitro anti-cancer properties” (Nature Communications, 2021)
